Measurements: patent publication US9975900B2, “Substituted imidazo[1,2-α]pyrazines for treating spinal muscular atrophy” (Hoffmann-La Roche Inc., priority 2014, dated 2018)
Counter-ions that a name gives are not always drawn.

What was measured:
[1] = system: SMN protein in SMA patient fibroblast cells (GM03813); assay: SMN protein assay (HTRF) in cultured cells; type: cell-based; conditions: Homo sapiens, SMA Type 1 patient fibroblasts, 48 hours; for EC (1.5-fold): 7-point concentration curve, concentration giving 1.5 times SMN protein vs vehicle, read-out: EC1.5x SMN protein (EC1.5x concentration for SMN protein expression); for maximal fold induction: fold increase relative to vehicle control, read-out: Max. fold increase of SMN protein
In short: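 SMA patient fibroblasts (5,000 cells/well, DMEM-10% FBS) treated 48 h at 37 °C with 7-point, 3.16-fold dilutions, in triplicate. Lysates (RIPA) read overnight by HTRF with anti-SMN d2/cryptate at 665/620 nm. ΔF versus blank gives fold increase over vehicle, from which EC1.5× and maximum fold increase are derived.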

[2] = system: full length SMN2 minigene mRNA (HEK293H cells stably transfected with the SMN2-A minigene construct); assay: RT-qPCR assay for SMN2 minigene pre-mRNA splicing in cultured cells; type: cell-based; conditions: Homo sapiens, HEK293-H, 24 hours, 7-point concentration curve, concentration giving 1.5-fold FL SMN2mini mRNA vs vehicle, read-out: EC1.5x minigene (EC1.5x concentration for production of full length SMN2 minigene mRNA)
In short: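 HEK293H cells stably carrying SMN2-A minigene were treated 24 h at 37 °C with a 7-point, 3.16-fold compound series, in duplicate. Minigene-specific exon 7–exon 8 mRNA measured by multiplex RT-qPCR with GAPDH normalisation; fold over vehicle by modified ΔΔCt, reported as EC1.5×.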

## Cc1cn2cc(NC(=O)c3ccc(N4CCNC(C(C)C)C4)cc3F)ncc2n1 (stereo not drawn) [Example 45, 2-fluoro-N-(2-methylimidazo[1,2-a]pyrazin-6-yl)-4-(3-propan-2-ylpiperazin-1-yl)benzamide hydrochloride]
[1]
  EC (1.5-fold): 0.264 µM
  maximal fold induction: 1.76
[2]
  EC (1.5-fold): 0.106 µM

## CC[C@@H]1CN(c2ccc(C(=O)Nc3cn4cc(C)nc4cn3)c(OC)n2)CCN1 [Example 46, 6-[(3R)-3-ethylpiperazin-1-yl]-2-methoxy-N-(2-methylimidazo[1,2-a]pyrazin-6-yl)pyridine-3-carboxamide hydrochloride]
[1]
  EC (1.5-fold): 0.58 µM
  maximal fold induction: 1.67
[2]
  EC (1.5-fold): 0.189 µM

## COc1nc(N2CCNCC2)ccc1C(=O)Nc1cn2cc(C)nc2cn1 [Example 47, 2-methoxy-N-(2-methylimidazo[1,2-a]pyrazin-6-yl)-6-piperazin-1-ylpyridine-3-carboxamide hydrochlorid]
[1]
  EC (1.5-fold): 0.551 µM
  maximal fold induction: 1.64
[2]
  EC (1.5-fold): 0.129 µM

## Cc1cn2cc(NC(=O)c3ccc(N4CCC(N5CCCC5)CC4)cc3F)nc(C)c2n1 [Example 48, N-(2,8-dimethylimidazo[1,2-a]pyrazin-6-yl)-2-fluoro-4-(4-pyrrolidin-1-ylpiperidin-1-yl)benzamide]
[1]
  EC (1.5-fold): 0.23 µM
  maximal fold induction: 1.65
[2]
  EC (1.5-fold): 0.0266 µM

## CCOc1cc(N2CCC(N3CC(OC)C3)CC2)ccc1C(=O)Nc1cn2cc(C)nc2c(C)n1 [Example 49, N-(2,8-dimethylimidazo[1,2-a]pyrazin-6-yl)-2-ethoxy-4-[4-(3-methoxyazetidin-1-yl)piperidin-1-yl]benzamide]
[1]
  EC (1.5-fold): 1.98 µM
  maximal fold induction: 1.51
[2]
  EC (1.5-fold): 0.223 µM
